The data set can be described thus: ESR spectrum linewidth in aqueous solution. The format is physicochemical. To be noted: 100 G, singlet. As for the experimental part:
For the method according to the invention the preferred radicals are those which have relatively few transitions, e.g. less than 15, preferably less than 10, in their ESR spectra and radicals having narrow linewidth ESR transitions, e.g. up to 500 mG, preferably less than 150 mG, especially less than 60 mG and particularly less than 25mG, are especially preferred. (The linewidths referred to are conveniently the intrinsic linewidths (full width at half maximum in the absorption spectrum) under ambient conditions).

For the substance “Tris (8-carboxyl-2,2,6,6-tetra (2-(1-hydroxy-2.2-d2-ethyl))-benzo[1,2-d:4,5-d']bis(1,3)dithiole -4-yl)methyl sodium salt [Example 21]”, the ESR linewidth (1.0 mM in H2O) is 70 mg.

Substance “Tris(8-carboxyl-2,2,6,6-tetra(hydroxyethyl)-benzo[1,2-d:4,5-d']bis(1,3)dithiole-4-yl)methyl N,N-bis(1,2-dihydroxyprop-3-yl)-acetamid-2-yl-ester [Example 23]” showed an ESR linewidth (1.0 mM in H2O) of 226 mg.

“Tris (8-carboxymethylthio-2,2,6,6-(2-(1-hydroxyethyl)) benzo[1,2-d:4,5-d']bis(1,3)dithiole-4-yl)methyl sodium salt [Example 9]”: the ESR linewidth (2.5 mM aqueous solution) stood at 195 mg.

“Tris(8-carboxy-2,2,6,6-tetra-(hydroxyethyl)benzo[1,2-d:4,5-d']bis(1,3)dithiole-4-yl)methyl sodium salt [Example 7]” gave an ESR linewidth (1.0 mM in H2O) of 160 mg.

For the substance “Tris(8-[N,N-bis(2,3-dihydroxypropyl)aminocarbonylmethylthiol-2,2,6,6-tetra-(2-(1-hydroxyethyl))benzo[1,2-d:4,5-d'] bis(1,3)dithiole-4-yl)methyl [Example 11]”, where the note is “1.0 mM in H2O”, the ESR linewidth stood at 274 mg.

Source of the values: patent publication EP0966414B1, “TRIARYLMETHYL FREE RADICALS AS IMAGE ENHANCING AGENTS” (Amersham Health AS, priority 1997, dated 1998).
